From PMC7948455, “Novel drug discovery platform for spinocerebellar ataxia, using fluorescence technology targeting β-III-spectrin” (The Journal of Biological Chemistry, 2020)

Tests used:
[1] = test system: GFP-ABD-L253P to mCherry nonspecific FRET; test: Counter-screen FRET assay (GFP-ABD-L253P + mCherry, nonspecific FRET) in HEK293-6E cells; type: cell-based
Text: With a constant amount of GFP-ABD-L253P expressed, increased Lifeact-mCherry expression increases FRET with an exponential plateau to 0.12 (Fig. 2A). To measure the nonspecific component of our FRET readout, we concurrently tested expression of mCherry in place of Lifeact-mCherry. For comparison, the Lifeact-mCherry and mCherry fluorescence intensity values (normalized to 1:1 GFP-ABD:Lifeact-mCherry sample) are plotted on the X-axis for samples transfected with different donor-to-acceptor DNA ratios. […] With the trade-off between high FRET and minimal nonspecific FRET, the donor:acceptor ratio 1:2 was chosen for the experiments that followed (Fig. 2A). […]
At 2 × 10^6 cells/ml, HEK293-6E cells were transfected with GFP-ABD-L253P or GFP-ABD-WT (2.4 μg), Lifeact-mCherry (2.4–16.8 μg), mCherry (1.2–16.8 μg), and/or pTT5 (0.8–17.6 μg), as indicated, using the 293fectin protocol (Thermo Fisher Scientific) with 20 μg total DNA. […] Cell viability and concentration were determined using trypan blue assay and a Countess cell counter (Invitrogen). […]
Time-resolved fluorescence waveforms for each well were fitted based on a one-exponential decay function using least-squares minimization global-analysis software, as detailed previously ([32]). […]

[2] = target: T1, Lifeact-mCherry binding to actin (Oryctolagus cuniculus, UniProt P68135); test: F-actin and Lifeact-mCherry cosedimentation assay
T1 construct: from tissue; host or cells: actin: rabbit psoas muscle; Lifeact-mCherry: made in house in E. coli (pE-SUMOpro)
Description: Actin was purified from acetone powder derived from the psoas muscle of New Zealand white rabbit (Oryctolagus cuniculus) ([46]). Filamentous (F)-actin was stored for up to 3 days on ice before use in binding assays. Within an hour of the binding assay, the F-actin was clarified at 100,000g at 4 °C for 10 min prior to setting up binding assays. The L253P β-III-spectrin ABD was expressed in E. coli BL21(DE3) (Novagen). The ABD was purified and the His-SUMO tag proteolytically removed, as previously described ([14]), except size-exclusion chromatography was not performed due to the high purity of the ABD protein. Lifeact-mCherry protein was similarly prepared. A Bradford assay was performed to determine clarified F-actin and ABD protein concentrations.
F-actin and ABD binding assays were performed as previously described ([10]). In brief, binding assays used 1 μM ABD protein, 1 μM F-actin, and 1 to 50 μM compound (as indicated) or DMSO control for a total reaction volume of 60 μl in F-buffer containing 10 mM Tris, pH 7.5, 150 mM NaCl, 0.5 mM ATP, 2 mM MgCl2, and 1 mM DTT. Following 30 min incubation at room temperature (21 °C). F-actin was pelleted using centrifugation at 100,000g at 25 °C for 30 min. Unbound ABD in the supernatant was measured following SDS-PAGE and Coomassie blue staining in accord ([10]). In addition, control cosedimentations assays that lacked actin were performed to test if compounds cause ABD aggregation. F-actin and Lifeact-mCherry binding assays were undertaken with 2 μM Lifeact-mCherry, 30 μM F-actin, and 1 to 50 μM compound (as indicated) or DMSO control for a total reaction volume of 80 μl in F-buffer. For a no-actin binding control, an assay sample with no F-actin was also set up. Binding reactions were allowed to reach equilibrium at room temperature (21 °C) for 30 min, and then F-actin was pelleted by centrifugation at 100,000g at 25 °C for 30 min. The amount of unbound Lifeact-mCherry was sampled by loading 7 μl of spin supernatant on a low-volume black bottom 384-well plate (Greiner). Amount of mCherry was determined by acquiring fluorescence spectrum peak intensity at ∼600 nm using a spectral unmixing plate reader (Fluorescence Innovations, Inc) equipped with a 532 nm laser (Laserglow Technologies, Ontario, Canada) for excitation, 532 nm long-pass filter for emission, and PMT for emission detection. The fraction of Lifeact-mCherry bound to F-actin was determined by subtracting from one the fraction of supernatant fluorescence intensity relative to the no-actin control sample:(3) Lifeactboundfraction=1−Fcompound/DMSO/FNo−actin where Fcontrol/DMSO is the peak mCherry fluorescence of assay samples containing compound or DMSO control, and Fno-actin is the peak mCherry fluorescence of assay samples that contained no F-actin.

mammalian cells = conditions: 10 μM ref 36, 37, 38; cited from earlier work

Structure (SMILES): CO[C@H]1C[C@H](CC[C@H](C)[C@H](O)[C@H](C)[C@H]2OC(=O)/C=C/C(C)=C/C[C@H](O)C[C@@H]3C=CC[C@@H](C[C@H](OC)[C@@H](C)[C@@H](O)C[C@@H](O)[C@H](C)[C@@H]([C@@H](C)[C@@H](O)[C@@H](C)CC[C@H]4C[C@H](OC)C[C@H](C)O4)OC(=O)/C=C/C(C)=C/C[C@H](O)C[C@@H]4C=CC[C@@H](C[C@H](OC)[C@@H](C)[C@@H](O)C[C@@H](O)[C@@H]2C)O4)O3)O[C@@H](C)C1 [swinholide A]
- Effect on counter-screen FRET readout ([1]; swinholide A 3 μM, tegaserod 50 μM, relative to DMSO): did not significantly alter
- Effect on Lifeact-mCherry cosedimentation with actin ([2]; 3 μM swinholide A, 50 μM tegaserod): reduces

Structure (SMILES): CCCCCCCC/C=C\CCCCCCCC(=O)NCc1ccc(O)c(OC)c1 [olvanil]
- Effect of Hit compound on counter-screen FRET ([1]; dose response, GFP-ABD-L253P:mCherry 1:2 and 1:4): no significant effect
- Reduction of cell viability (mammalian cells): < 10%

Structure (SMILES): O=C(O)c1cc([N+](=O)[O-])ccc1NCCCc1ccccc1 [NPPB]
- Effect on actin-Lifeact cosedimentation ([2]; 10 μM Hit compound): decreased
